Results reported in ChEMBL document CHEMBL1130774, “Pyrazoles, 1,2,4-triazoles, and tetrazoles as surrogates for cis-amide bonds in boronate ester thrombin inhibitors” (Bioorg Med Chem Lett, 1998).

Legend:
[1] = target: T1, Prothrombin (Homo sapiens, UniProt P00734); assay: Inhibition against human thrombin
[2] = target: Serine protease 1 (Homo sapiens, UniProt P07477); assay: Inhibition of trypsin
[3] = target: T2, Coagulation factor VII (Homo sapiens, UniProt P08709); assay: Inhibition against human Coagulation factor VII
T2 sequence (P08709 whole entry): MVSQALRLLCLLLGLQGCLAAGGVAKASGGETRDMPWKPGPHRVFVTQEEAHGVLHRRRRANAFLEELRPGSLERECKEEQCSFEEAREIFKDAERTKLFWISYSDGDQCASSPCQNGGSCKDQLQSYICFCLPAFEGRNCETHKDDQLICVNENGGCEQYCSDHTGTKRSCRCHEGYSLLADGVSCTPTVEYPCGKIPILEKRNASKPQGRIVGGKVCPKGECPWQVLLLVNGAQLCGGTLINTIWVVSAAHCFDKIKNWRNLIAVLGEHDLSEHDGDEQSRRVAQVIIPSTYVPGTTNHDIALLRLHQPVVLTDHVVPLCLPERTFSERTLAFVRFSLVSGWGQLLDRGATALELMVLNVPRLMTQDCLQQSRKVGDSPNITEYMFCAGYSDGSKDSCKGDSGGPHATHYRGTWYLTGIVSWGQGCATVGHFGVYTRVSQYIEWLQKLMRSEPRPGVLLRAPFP

[4] = target: Coagulation factor X (Homo sapiens, UniProt P00742); assay: Inhibition against human coagulation factor Xa
Chain of Coagulation factor X (P00742 41-179 limits assumed): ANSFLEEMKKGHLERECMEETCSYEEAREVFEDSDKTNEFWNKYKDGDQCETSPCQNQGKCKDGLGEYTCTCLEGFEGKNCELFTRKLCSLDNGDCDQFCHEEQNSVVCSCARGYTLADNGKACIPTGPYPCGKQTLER
Chain of Coagulation factor X (P00742 235-488 limits assumed): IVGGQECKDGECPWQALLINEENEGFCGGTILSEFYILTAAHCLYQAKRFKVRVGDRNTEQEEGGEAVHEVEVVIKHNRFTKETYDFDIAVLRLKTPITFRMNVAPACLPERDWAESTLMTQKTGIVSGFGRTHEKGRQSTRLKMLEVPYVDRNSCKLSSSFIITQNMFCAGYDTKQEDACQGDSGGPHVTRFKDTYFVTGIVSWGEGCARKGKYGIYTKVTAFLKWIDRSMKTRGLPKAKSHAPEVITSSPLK

[5] = target: T1, Prothrombin; assay: (§1) Concentration necessary to double the time required for clot formation induced by the addition of 4 NIH u/mL (final concentration) bovine thrombin.; format: functional
[6] = Compound was tested for inhibition against tissue factor.
[7] = target: T1, Prothrombin; assay: Concentration necessary to double the time required for clot formation induced by the addition of 4 NIH u/mL(final concentration) bovine thrombin.; format: functional
[8] = Compound was tested for inhibition against Coagulation factor I
[9] = as §1; format: functional

Chain of Serine protease 1 (P07477 whole entry): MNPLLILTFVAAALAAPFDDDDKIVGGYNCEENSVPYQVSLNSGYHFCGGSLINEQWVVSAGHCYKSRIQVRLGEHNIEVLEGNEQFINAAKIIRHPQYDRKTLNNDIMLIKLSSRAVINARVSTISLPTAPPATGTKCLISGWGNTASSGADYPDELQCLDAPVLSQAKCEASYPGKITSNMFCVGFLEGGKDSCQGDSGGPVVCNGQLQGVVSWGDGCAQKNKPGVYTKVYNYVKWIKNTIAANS

Row | Compound | Ki [1] [nM] | Ki [2] [nM] | Ki [3] [nM] | Ki [4] [nM] | Ki [5] [nM] | Ki [6] [nM] | Ki [7] [nM] | Ki [8] [nM] | Ki [9] [nM]
1 | CC1(C)[C@@H]2C[C@H]3OB([C@H](CCCCN)NC(=O)Cn4nc(-c5ccccc5)nc4Cc4ccccc4)O[C@@]3(C)[C@H]1C2 | 173 |  |  |  |  |  |  |  | 
2 | CC(C)C(=O)NCc1nc(Cc2ccccc2)n(CC(=O)N[C@@H](CCCCN)B2O[C@@H]3C[C@@H]4C[C@@H](C4(C)C)[C@]3(C)O2)n1 | 160 | 9.6 | > 3000 | > 6000 |  |  |  |  | 
3 | CC1(C)[C@@H]2C[C@H]3OB([C@H](CCCCN)NC(=O)Cn4nc(CC(=O)O)nc4Cc4ccccc4)O[C@@]3(C)[C@H]1C2 | 1700 |  | > 14000 | > 6000 |  |  |  |  | 
4 | COC(=O)Cc1nc(Cc2ccccc2)n(CC(=O)N[C@@H](CCCCN)B2O[C@@H]3C[C@@H]4C[C@@H](C4(C)C)[C@]3(C)O2)n1 | 85 |  | 14000 | > 6000 |  |  |  |  | 
5 | CC1(C)[C@@H]2C[C@H]3OB([C@H](CCCCN)NC(=O)Cn4nc(CCC(=O)O)nc4Cc4ccccc4)O[C@@]3(C)[C@H]1C2 | 230 | 7.1 | > 3000 | > 6000 |  | > 10000 |  |  | 
6 | CC1(C)[C@@H]2C[C@H]3OB([C@H](CCCCN)NC(=O)Cn4nc(-c5cccc([N+](=O)[O-])c5)nc4Cc4ccccc4)O[C@@]3(C)[C@H]1C2 | 85 |  | 2600 | 4200 |  |  |  |  | 
7 | CC1(C)[C@@H]2C[C@H]3OB([C@H](CCCCN)NC(=O)Cn4ncnc4CCCc4ccccc4)O[C@@]3(C)[C@H]1C2 | > 42 |  |  |  |  |  |  |  | 
8 | CC1(C)[C@@H]2C[C@H]3OB([C@H](CCCCN)NC(=O)Cn4nc(-c5cccc(N)c5)nc4Cc4ccccc4)O[C@@]3(C)[C@H]1C2 | 150 | 4.2 | 1400 | > 6000 |  |  |  |  | 
9 | CC(C)(C)OC(=O)/C=C/c1nc(Cc2ccccc2)n(CC(=O)N[C@@H](CCCCN)B2O[C@@H]3C[C@@H]4C[C@@H](C4(C)C)[C@]3(C)O2)n1 | 150 | 36 | 2700 | > 6000 |  | 2800 |  |  | 
10 | CSCc1nc(Cc2ccccc2)n(CC(=O)N[C@@H](CCCCN)B2O[C@@H]3C[C@@H]4C[C@@H](C4(C)C)[C@]3(C)O2)n1 | 65 | 1.9 | 2500 | > 6000 |  |  | 4500 |  | 
11 | CC1(C)[C@@H]2C[C@H]3OB([C@H](CCCCN)NC(=O)Cn4nc(Cc5nn[nH]n5)nc4Cc4ccccc4)O[C@@]3(C)[C@H]1C2 | 350 |  |  |  |  |  |  |  | 
12 | CC1(C)[C@@H]2C[C@H]3OB([C@H](CCCCN)NC(=O)Cn4nc(CNS(=O)(=O)C(F)(F)F)nc4Cc4ccccc4)O[C@@]3(C)[C@H]1C2 | 210 | > 1200 | > 3000 | > 6000 |  | 3700 |  |  | 
13 | CCCc1nc(Cc2ccccc2)n(CC(=O)N[C@@H](CCCCN)B2O[C@@H]3C[C@@H]4C[C@@H](C4(C)C)[C@]3(C)O2)n1 | 73 | 2.3 | 2400 | > 6000 |  |  |  |  | 
14 | CC1(C)[C@@H]2C[C@H]3OB([C@H](CCCCN)NC(=O)Cn4nc(CO)nc4Cc4ccccc4)O[C@@]3(C)[C@H]1C2 | 84 |  | 7700 | > 6000 |  |  |  |  | 

More lines, in order of falling Ki [1], values ahead:

Row | Ki [1] [nM] | Ki [2] [nM] | Ki [3] [nM] | Ki [4] [nM] | Ki [5] [nM] | Ki [6] [nM] | Ki [7] [nM] | Ki [8] [nM] | Ki [9] [nM] | Compound
15 | 47 | 4.8 | 2100 | 6000 |  | 3600 |  |  |  | C[S+]([O-])Cc1nc(Cc2ccccc2)n(CC(=O)N[C@@H](CCCCN)B2O[C@@H]3C[C@@H]4C[C@@H](C4(C)C)[C@]3(C)O2)n1 (some centres not stated)
16 | 41 |  | 3940 | > 6000 |  |  |  |  |  | CC1(C)[C@@H]2C[C@H]3OB([C@H](CCCCN)NC(=O)Cn4nc(Cc5ccccc5)nc4Cc4ccccc4)O[C@@]3(C)[C@H]1C2
17 | 36 |  |  |  |  |  |  |  |  | CC1(C)[C@@H]2C[C@H]3OB([C@H](CCCCN)NC(=O)Cn4ncnc4CCc4ccccc4)O[C@@]3(C)[C@H]1C2
18 | 33 | 2.7 | > 3000 | 4300 |  | 1490 |  |  |  | CC(C)(C)CC(=O)NCc1nc(Cc2ccccc2)n(CC(=O)N[C@@H](CCCCN)B2O[C@@H]3C[C@@H]4C[C@@H](C4(C)C)[C@]3(C)O2)n1
19 | 33 | 6.6 | 2200 | > 6000 |  | 2700 |  |  |  | CC1(C)[C@@H]2C[C@H]3OB([C@H](CCCCN)NC(=O)Cn4nc(CNC=O)nc4Cc4ccccc4)O[C@@]3(C)[C@H]1C2
20 | 33 |  |  |  |  |  |  |  |  | CC1(C)[C@@H]2C[C@H]3OB([C@H](CCCCN)NC(=O)Cn4nnnc4CCc4ccccc4)O[C@@]3(C)[C@H]1C2
21 | 31 |  |  |  |  |  |  |  | 2500 | CC1(C)[C@@H]2C[C@H]3OB([C@H](CCCCN)NC(=O)Cn4ncnc4Cc4ccccc4)O[C@@]3(C)[C@H]1C2
22 | 11 | 2.1 | 1900 | > 6000 |  | 2700 |  |  |  | CC1(C)[C@@H]2C[C@H]3OB([C@H](CCCCN)NC(=O)Cn4nc(CS(C)(=O)=O)nc4Cc4ccccc4)O[C@@]3(C)[C@H]1C2
23 | 8.7 |  | 1500 | 1600 |  |  | 1300 |  |  | CC1(C)[C@@H]2C[C@H]3OB([C@H](CCCCN)NC(=O)Cn4nc(COCc5ccccc5)nc4Cc4ccccc4)O[C@@]3(C)[C@H]1C2
24 | 8.6 |  | 7160 | > 6000 |  |  | 6000 |  |  | Cc1nc(Cc2ccccc2)n(CC(=O)N[C@@H](CCCCN)B2O[C@@H]3C[C@@H]4C[C@@H](C4(C)C)[C@]3(C)O2)n1
25 | 5.5 | 1.4 | > 3000 | 760 |  | 670 |  |  |  | CC(C)(C)OC(=O)CCc1nc(Cc2ccccc2)n(CC(=O)N[C@@H](CCCCN)B2O[C@@H]3C[C@@H]4C[C@@H](C4(C)C)[C@]3(C)O2)n1
26 | 4.6 | 35 |  | > 6000 |  |  |  | 13000 |  | CC1(C)[C@@H]2C[C@H]3OB([C@H](CCCCN)NC(=O)Cn4nc(CC#N)cc4CCc4ccccc4)O[C@@]3(C)[C@H]1C2
27 | 3.5 | 5.6 | 4200 | > 6000 | 500 |  |  |  |  | CC1(C)[C@@H]2C[C@H]3OB([C@H](CCCCN)NC(=O)Cn4nc(CC#N)nc4Cc4ccccc4)O[C@@]3(C)[C@H]1C2
28 | 2.6 | 12 | > 3000 | > 6000 |  |  |  | 6800 |  | CC1(C)[C@@H]2C[C@H]3OB([C@H](CCCCN)NC(=O)Cn4nc(CC#N)nc4CCc4ccccc4)O[C@@]3(C)[C@H]1C2
29 | 1.8 | 23 | > 3000 | > 6000 |  |  |  | 1900 |  | CC1(C)[C@@H]2C[C@H]3OB([C@H](CCCCN)NC(=O)Cn4nc(CC#N)nc4Cc4cccc([N+](=O)[O-])c4)O[C@@]3(C)[C@H]1C2
30 | 0.8 | 8.4 | 3000 | 4900 |  |  |  | 2000 |  | CC1(C)[C@@H]2C[C@H]3OB([C@H](CCCCN)NC(=O)Cn4nc(CC#N)nc4Cc4ccccc4[N+](=O)[O-])O[C@@]3(C)[C@H]1C2
31 | 0.3 |  |  |  |  |  |  |  |  | CN(CC(=O)N[C@@H](CCCSC(=N)N)B(O)O)C(=O)CCc1ccccc1
